Experimental data reported in patent publication US20260103465A1, “GLYCOGEN SYNTHASE KINASE 3 INHIBITORS AND USES THEREOF” (The Broad Institute, Inc., priority 2023, published 2026).
Where two headings read alike, the source gives them in different places.

Assays:
[1] = biological target: T1, GSK3b (GST-full length GSK3b) (Homo sapiens, UniProt P49841); assay: GSK3b TR-FRET kinase inhibition assay; type: biochemical
T1 construct: GST-full length GSK3b: [SignalChem G08-9G]; purchased SignalChem G08-9G
T1 sequence (P49841 whole entry): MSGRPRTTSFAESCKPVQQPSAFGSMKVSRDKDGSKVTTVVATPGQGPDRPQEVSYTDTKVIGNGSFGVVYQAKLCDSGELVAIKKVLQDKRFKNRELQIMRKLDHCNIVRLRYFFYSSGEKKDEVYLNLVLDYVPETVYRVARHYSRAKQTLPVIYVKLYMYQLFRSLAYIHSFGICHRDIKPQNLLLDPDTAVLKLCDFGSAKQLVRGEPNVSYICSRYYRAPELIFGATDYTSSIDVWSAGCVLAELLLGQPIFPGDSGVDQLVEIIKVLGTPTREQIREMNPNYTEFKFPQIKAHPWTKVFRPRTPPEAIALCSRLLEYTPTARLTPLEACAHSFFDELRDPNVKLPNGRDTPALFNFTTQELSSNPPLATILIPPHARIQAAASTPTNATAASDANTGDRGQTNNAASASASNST
Procedure, shortened: (§1)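 GST-tagged full-length human kinase (1 nM), pre-incubated 30 min with compound, then reacted 100 min at ambient temperature at pH 7.5 with 200 nM biotinylated phospho-S645 glycogen synthase 631–650 peptide and ATP at 2 μM–1 mM. After EDTA quench, Tb-pSer641 antibody/streptavidin-d2 TR-FRET 665/615 ratio fitted for IC50.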

[2] = biological target: T2, GSK3a (GST-full length GSK3a) (Homo sapiens, UniProt P49840); assay: GSK3a TR-FRET kinase inhibition assay; type: biochemical
T2 construct: GST-full length GSK3a [SignalChem G08-10G]; purchased SignalChem G08-10G
T2 sequence (P49840 whole entry): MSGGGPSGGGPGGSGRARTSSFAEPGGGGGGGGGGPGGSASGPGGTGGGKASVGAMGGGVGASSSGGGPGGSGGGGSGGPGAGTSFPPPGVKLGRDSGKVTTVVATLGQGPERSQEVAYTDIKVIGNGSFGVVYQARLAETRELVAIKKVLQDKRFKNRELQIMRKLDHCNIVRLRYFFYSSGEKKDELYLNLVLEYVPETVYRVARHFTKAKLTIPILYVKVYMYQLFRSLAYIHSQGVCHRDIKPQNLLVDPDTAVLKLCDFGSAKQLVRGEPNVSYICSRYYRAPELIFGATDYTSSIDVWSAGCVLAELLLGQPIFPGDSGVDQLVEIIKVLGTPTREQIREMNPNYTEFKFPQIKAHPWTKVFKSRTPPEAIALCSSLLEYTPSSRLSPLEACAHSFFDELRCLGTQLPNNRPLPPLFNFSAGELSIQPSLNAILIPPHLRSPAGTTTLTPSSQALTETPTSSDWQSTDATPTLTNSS
Procedure, shortened: as §1

[3] = 1 mM ATP, Table 3, read-out: GSK3b TR-FRET 1 mM ATP Average IC50
[4] = 1 mM ATP, Table 3, read-out: GSK3a TR-FRET 1 mM ATP Average IC50
[5] = 2 μM ATP, read-out: GSK3β TR-FRET 2 μM ATP GMean IC50
[6] = 4 μM ATP, read-out: GSK3α TR-FRET 4 μM ATP GMean IC50
[7] = 1 mM ATP, Table 5, read-out: GSK3β TR-FRET 1 mM ATP Average IC50
[8] = 1 mM ATP, Table 5, read-out: GSK3α TR-FRET 1 mM ATP Average IC50
[9] = 100 μM ATP, read-out: GSK3b 100 μM ATP Average IC50
[10] = 100 μM ATP, read-out: GSK3a 100 μM ATP Average IC50

| SMILES | IC50 [1, 3] [µM] | IC50 [2, 4] [µM] | IC50 [1, 7] [µM] | IC50 [2, 8] [µM] | further results |
| --- | --- | --- | --- | --- | --- |
| CCC1(c2cccc(-c3ccncc3C)c2)C2=C(CC(C)(C)CC2=O)Nc2ncc(F)cc21 (single isomer, unassigned) [Compound 1031A] | – | – | – | – | IC50 [1, 5]: 0.1 to 1 µM; IC50 [2, 6]: 0.1 to 1 µM |
| COc1cncc(CC(C)(C)C)c1-c1cccc(C2(C)C3=C(CC(C)(C)CC3=O)Nc3ncccc32)c1 (single isomer, unassigned) [Compound 172A] | 0.1 to 1 | 0.1 to 1 | – | – | – |
| CCC1(c2ccccc2)C2=C(Nc3ncccc31)C(F)C(C)(C)CC2=O (single isomer, unassigned) [Compound 1006A] | – | – | – | – | IC50 [1, 5]: > 5 µM; IC50 [2, 6]: > 5 µM |
| CC1(C)CC2=C(C(=O)N1)C(C)(c1cccc(S(C)(=O)=O)c1)c1cccnc1N2 (single isomer, unassigned) [630A] | – | – | 0.1 to 1 | ≤ 0.1 | – |
| CC1(C)CC(=O)C2=C(C1)Nc1ncccc1C2(C)c1cccc(-c2ccncc2OCC(F)F)c1 (single isomer, unassigned) [Compound 162B] | 0.1 to 1 | 0.1 to 1 | – | – | – |
| CC1(C)CC(=O)C2=C(C1)Nc1ncc(C(F)(F)F)cc1C2(C)c1cccc(C(F)F)c1 (single isomer, unassigned) [646B] | – | – | 0.1 to 1 | 1 to 5 | – |
| CC1(C)CC(=O)C2=C(C1)Nc1ncccc1C2(C)c1cccc(N(CC2CC2)c2ncccn2)c1 (single isomer, unassigned) [652A] | – | – | 5 to 20 | 5 to 20 | – |
| CC1(C)CC(=O)C2=C(C1)Nc1nccc(CC3CC3)c1C2(C)c1ccccc1 (single isomer, unassigned) [Compound 123A] | 1 to 5 | 1 to 5 | – | – | – |
| CC1(C)CC(=O)C2=C(C1)Nc1ncc(C(F)(F)F)cc1C2(C)c1cccc(S(C)(=O)=O)c1 (single isomer, unassigned) [Compound 157A] | 0.1 to 1 | 1 to 5 | – | – | – |
| COc1cncc(F)c1-c1cccc(C2(C)C3=C(CC(C)(C)CC3=O)Nc3ncc(C4CC4)cc32)c1 (single isomer, unassigned) [Compound 167A] | 0.1 to 1 | 0.1 to 1 | – | – | – |
| CCC1(c2ccccc2)C2=C(CC(C)(C)CC2=O)Nc2ncc(C(F)(F)F)cc21 (single isomer, unassigned) [133 A] | – | – | – | – | IC50 [1, 5]: > 5 µM; IC50 [2, 6]: > 5 µM |
| CN(c1cccc(C2(C)C3=C(CC(C)(C)CC3=O)Nc3ncccc32)c1)c1ncccn1 (single isomer, unassigned) [641B] | – | – | 1 to 5 | 1 to 5 | – |
| CC1(C)CC(=O)C2=C(C1)Nc1ncccc1C2(C)c1cccc(-c2ccncc2N2CCCC2)c1 (single isomer, unassigned) [Compound 158A] | 0.1 to 1 | 0.1 to 1 | – | – | – |
| CC1(C)CC(=O)C2=C(C1)Nc1ncc(C(F)(F)F)cc1C2(C)c1cccc(S(C)(=O)=O)c1 (single isomer, unassigned) [Compound 157B] | 5 to 20 | 5 to 20 | – | – | – |
| CC1(C)CC(=O)C2=C(C1)Nc1ncc(F)c(C(F)(F)F)c1C2(C)c1cccc(S(C)(=O)=O)c1 (single isomer, unassigned) [Compound 166B] | 5 to 20 | 5 to 20 | – | – | – |
| COc1cncc(F)c1-c1cccc(C2(C)C3=C(CC(C)(C)CC3=O)Nc3ncc(C4CC4)cc32)c1 (single isomer, unassigned) [Compound 167B] | 1 to 5 | 1 to 5 | – | – | – |
| CC1(C)CC(=O)C2=C(C1)Nc1ncccc1C2c1ccccc1 (centres unmarked) [Compound C1, reference compound] | – | – | – | – | IC50 [1, 5]: > 5 µM; IC50 [2, 6]: > 5 µM |
| COc1cncc(F)c1-c1cccc(C2(C)C3=C(CC(C)(C)CC3=O)Nc3ncc(C)cc32)c1 (single isomer, unassigned) [Compound 155A] | 1 to 5 | 0.1 to 1 | – | – | – |
| CC(C)(C)Cc1cncc(F)c1-c1cccc(C2(C)C3=C(CC(C)(C)CC3=O)Nc3ncc(F)cc32)c1 (single isomer, unassigned) [Compound 173A] | 1 to 5 | 1 to 5 | – | – | – |
| CCC1(c2cccc(-c3ccnc4c3CCCC4)c2)C2=C(CC(C)(C)CC2=O)Nc2ncc(F)cc21 (single isomer, unassigned) [Compound 165A] | 0.1 to 1 | 0.1 to 1 | – | – | IC50 [1, 5]: > 5 µM; IC50 ([1]; 10 μM ATP, read-out: GSK3b 10 μM ATP Average IC50): ≤ 0.1 µM; IC50 [1, 9]: ≤ 0.1 µM; IC50 [2, 6]: 1 to 5 µM; IC50 ([2]; 10 μM ATP, read-out: GSK3a 10 μM ATP Average IC50): ≤ 0.1 µM; IC50 [2, 10]: ≤ 0.1 µM |
| CCC1(c2cccc(-c3cnn(C)c3)c2)C2=C(CC(C)(C)CC2=O)Nc2ncccc21 (single isomer, unassigned) [Compound 1018B] | – | – | – | – | IC50 [1, 5]: ≤ 0.1 µM; IC50 [2, 6]: ≤ 0.1 µM |
| Cc1c(F)cnc2c1C(C)(c1cccc(S(C)(=O)=O)c1)C1=C(CC(C)(C)CC1=O)N2 (single isomer, unassigned) [Compound 144B] | 5 to 20 | 5 to 20 | – | – | – |
| CC(C)n1cncc1-c1cccc(C2(C)C3=C(CC(C)(C)CC3=O)Nc3ncc(C(F)(F)F)cc32)c1 (single isomer, unassigned) [Compound 171A] | 1 to 5 | 1 to 5 | – | – | – |
| COc1cncc(F)c1-c1cccc(C2(C)C3=C(CC(C)(C)CC3=O)Nc3ncc(C)cc32)c1 (single isomer, unassigned) [Compound 155B] | 5 to 20 | 5 to 20 | – | – | – |

Second part, led by results:

| IC50 [1, 3] [µM] | IC50 [2, 4] [µM] | IC50 [1, 7] [µM] | IC50 [2, 8] [µM] | SMILES | further results |
| --- | --- | --- | --- | --- | --- |
| 5 to 20 | 5 to 20 | – | – | CC1(C)CC(=O)C2=C(C1)Nc1ncc(F)c(C#N)c1C2(C)c1cccc(S(C)(=O)=O)c1 (single isomer, unassigned) [Compound 148B] | – |
| – | – | ≤ 0.1 | ≤ 0.1 | CN1C(=O)C2=C(CC1(C)C)Nc1ncc(F)c(C#N)c1C2(C)c1ccccc1 (single isomer, unassigned) [615B] | – |
| 1 to 5 | 1 to 5 | – | – | CCc1ccnc2c1C(C)(c1ccccc1)C1=C(CC(C)(C)CC1=O)N2 (single isomer, unassigned) [Compound 112A] | IC50 [1, 9]: ≤ 0.1 µM; IC50 [2, 10]: ≤ 0.1 µM |
| – | – | 0.1 to 1 | 1 to 5 | CC1(C)CC(=O)C2=C(Nc3ncc(C(F)F)c(C#N)c3[C@@]2(C)c2ccccc2)[C@H]1F (single isomer, unassigned) [Compound 633D] | – |
| 1 to 5 | 5 to 20 | – | – | CC1(C)CC(=O)C2=C(C1)Nc1ncc(C3CC3)cc1C2(C)c1ccccc1 (single isomer, unassigned) [Compound 117A] | IC50 [1, 9]: 0.1 to 1 µM; IC50 [2, 10]: 0.1 to 1 µM |
| – | – | 5 to 20 | 5 to 20 | COc1cnc2c(c1C#N)C(C)(c1ccccc1)C1=C(CC(C)(C)CC1=O)N2 (single isomer, unassigned) [612B] | – |
| 1 to 5 | – | – | – | CCc1cnc2c(c1)C(C)(c1ccccc1)C1=C(CC(C)(C)CC1=O)N2 (single isomer, unassigned) [Compound 113A] | IC50 [1, 9]: 0.1 to 1 µM; IC50 [2, 10]: 1 to 5 µM |
| 0.1 to 1 | 1 to 5 | – | – | CC1(C)CC(=O)C2=C(C1)Nc1ncc(C(F)(F)F)c(C#N)c1C2(C)c1ccccc1 (single isomer, unassigned) [Compound 137A] | – |
| – | – | 5 to 20 | 5 to 20 | CNc1cnc2c(c1C#N)C(C)(c1ccccc1)C1=C(CC(C)(C)CC1=O)N2 (single isomer, unassigned) [610B] | – |
| – | – | 5 to 20 | 5 to 20 | C=Cc1cnc2c(c1C#N)C(C)(c1ccccc1)C1=C(CC(C)(C)CC1=O)N2 (single isomer, unassigned) [607B] | – |
| – | – | 5 to 20 | 5 to 20 | COc1cnc2c(c1C1CC1)C(C)(c1ccccc1)C1=C(CC(C)(C)CC1=O)N2 (single isomer, unassigned) [626A] | – |
| – | – | 5 to 20 | 5 to 20 | CCc1cnc2c(c1C#N)C(C)(c1ccccc1)C1=C(CC(C)(C)CC1=O)N2 (single isomer, unassigned) [608B] | – |
| – | – | 5 to 20 | 5 to 20 | CC1(C)CC(=O)C2=C(C1)Nc1ncc(C3CC3)c(C#N)c1C2(C)c1ccccc1 (single isomer, unassigned) [619A] | – |
| – | – | ≤ 0.1 | ≤ 0.1 | CC(C)Oc1cccc(C2(C)C3=C(CC(C)(C)CC3=O)Nc3ncc(F)c(C#N)c32)c1 (single isomer, unassigned) [639B] | – |
| – | – | 1 to 5 | 5 to 20 | CC1(C)CC(=O)C2=C(C1)Nc1ncc(C(F)F)c(C#N)c1C2(C)c1ccccc1 (single isomer, unassigned) [627B] | – |
| – | – | 0.1 to 1 | 1 to 5 | CC1(C)CC(=O)C2=C(Nc3ncc(C(F)F)c(C#N)c3[C@@]2(C)c2ccccc2)[C@@H]1F (single isomer, unassigned) [Compound 633B] | – |
| – | – | 5 to 20 | 5 to 20 | CC1(C)CC(=O)C2=C(C1)Nc1ncc(CF)c(C#N)c1C2(C)c1ccccc1 (single isomer, unassigned) [614A] | – |
| 5 to 20 | 5 to 20 | – | – | CC1(C)CC(=O)C2=C(C1)Nc1ncc(C(F)(F)F)c(F)c1C2(C)c1ccccc1 (single isomer, unassigned) [Compound 136B] | – |
| 1 to 5 | 1 to 5 | – | – | CC1(C)CC(=O)C2=C(C1)Nc1ncc(C(F)(F)F)c(C#N)c1C2(C)c1ccccc1 (single isomer, unassigned) [Compound 137B] | – |
| – | – | 0.1 to 1 | 1 to 5 | CN1C(=O)C2=C(CC1(C)C)Nc1ncc(C(F)F)c(C#N)c1C2(C)c1ccccc1 (single isomer, unassigned) [632A] | – |
| – | – | 5 to 20 | 5 to 20 | CC1(C)CC(=O)C2=C(C1)Nc1ncc(C(C)(F)F)c(C#N)c1C2(C)c1ccccc1 (single isomer, unassigned) [631A] | – |
